Consider 24 molecules from patent US8586747B2, “3,3-dimethyl tetrahydroquinoline derivatives” (Hoffmann-La Roche Inc., priority 2010, dated 2013).

This assay relates to AMP-activated protein kinase (AMPK). The assay is described as follows: ADP Quest assay for AMPK activators. Type of assay: biochemical. More on the design: key: fold AMPK activation with vs without activator at 30 µM. The note with it: fold of AMPK activation to phosphorylate SAMS peptide without and with an activator at the concentration of 30 µM. Here is the method: ADP Quest™ Assay for AMPK Activators
This method evaluates AMP-activated protein kinase (AMPK) activity through detecting the accumulation of ADP product using an ADP Quest kit and determining the E30 values of the small molecular AMPK activators. ADP Quest kit (DiscoveRx, Fremont, Calif.) is stored at −20° C. before use. Before an experiment, thaw the kit (include assay buffer, ADP standard solution, reagent A and reagent B) and equilibrate to room temperature. Dispense the ADP Quest reagents into single-use aliquots and store at −20° C. The compound concentrations typically range from 0 µM to 100 µM by 2-fold dilution. AMP concentrations range from […] to 1 mM as the reference control. In an assay, thaw and equilibrate the assay buffer, reagent A and reagent B to room temperature for 30 minutes prior to use. Mix ATP, SAMS peptide substrate and compound, and place them into the 384-well assay plate. Add reagent A and B based on the assay kit protocol. Incubate the assay plate at room temperature for 30 minutes after addition the mixture followed by the addition of AMPK protein (Invitrogen, CA) to initiate the AMPK phosphorylation reaction. At the same time, reactions with AMPK activator AMP in the absence of enzyme is included as blank control. The reaction fluorescence signal is monitored and recorded on Envision in kinetic mode with the excitation wavelength of 530 nm and emission wavelength of 590 nm. The E30 value, defined as the fold of AMPK activation to phosphorylate SAMS peptide without and with an activator at the concentration of 30 µM, is calculated and analyzed using Prism 5.0.
`CC(C)Oc1ccc(-c2cccc(C3Nc4ccc(C(=O)NS(C)(=O)=O)cc4CC3(C)C)c2)cc1` (stereo not drawn) [Example 85, N-[2-(4′-Isopropoxy-biphenyl-3-yl)-3,3-dimethyl-1,2,3,4-tetrahydro-quinoline-6-carbonyl]-methanesulfonamide] returned an E30 of 1.29.
Under `CN(C)S(=O)(=O)c1cccc(C2Nc3ccc(C(=O)O)cc3CC2(C)C)c1` (stereo not drawn) [Example 231, 2-(3-(N,N-dimethylsulfamoyl)phenyl)-3,3-dimethyl-1,2,3,4-tetrahydroquinoline-6-carboxylic acid] stands 1.31; under `CC1(C)Cc2cc(C(=O)O)ccc2NC1c1ccc(N2CCOCC2)cc1` (stereo not drawn) [Example 72, 3,3-Dimethyl-2-(4-morpholin-4-yl-phenyl)-1,2,3,4-tetrahydro-quinoline-6-carboxylic acid], 1.21; under `CC1(C)Cc2cc(C(=O)O)ccc2NC1c1ccccc1NS(=O)(=O)c1cccc(F)c1` (stereo not drawn) [Example 222, 2-(2-(3-Fluorophenylsulfonamido)phenyl)-3,3-dimethyl-1,2,3,4-tetrahydroquinoline-6-carboxylic acid], 2.09.
To `CC1(C)Cc2cc(C(=O)O)ccc2NC1c1cccc(NC(=O)c2cccc(F)c2)c1` (stereo not drawn) [Example 6, 2-[3-(3-fluoro-benzoylamino)-phenyl]-3,3-dimethyl-1,2,3,4-tetrahydro-quinoline-6-carboxylic acid] belongs 1.31.
Under `CC1(C)Cc2cc(C(=O)NS(C)(=O)=O)ccc2NC1c1ccc(N2CCOCC2)cc1` (stereo not drawn) [Example 74, N-[3,3-Dimethyl-2-(4-morpholin-4-yl-phenyl)-1,2,3,4-tetrahydro-quinoline-6-carbonyl]-methanesulfonamide] stands 1.19.
In the case of `CC(C)(C)c1ccc(-c2cncc(C3Nc4ccc(C(=O)O)cc4CC3(C)C)c2)cc1` (stereo not drawn) [Example 46, 2-[5-(4-tert-Butyl-phenyl)-pyridin-3-yl]-3,3-dimethyl-1,2,3,4-tetrahydro-quinoline-6-carboxylic acid], the E30 was 1.46.
Under `CN1CCC(NS(=O)(=O)c2cccc(C3Nc4ccc(C(=O)O)cc4CC3(C)C)c2)C1` (stereo not drawn) [Example 229, 3,3-Dimethyl-2-(3-(N-(1-methylpyrrolidin-3-yl)sulfamoyl)phenyl)-1,2,3,4-tetrahydroquinoline-6-carboxylic acid] stands 1.33; under `CC1(C)Cc2cc(C(=O)NS(=O)(=O)C3CC3)ccc2NC1c1cc(Cl)cc(N2CCOCC2)c1` (stereo not drawn) [Example 56, Cyclopropanesulfonic acid [2-(3-chloro-5-morpholin-4-yl-phenyl)-3,3-dimethyl-1,2,3,4-tetrahydro-quinoline-6-carbonyl]-amide], 1.26.
The molecule `CC(C)C(=O)Nc1cc(C2Nc3ccc(C(=O)O)cc3CC2(C)C)ccc1F` (stereo not drawn) [Example 174, 2-(4-Fluoro-3-isobutyramidophenyl)-3,3-dimethyl-1,2,3,4-tetrahydroquinoline-6-carboxylic acid] returned an E30 of 1.54.
Under `CC1(C)Cc2cc(C(=O)O)ccc2NC1c1cccc(NS(C)(=O)=O)c1` (stereo not drawn) [Example 201, 3,3-Dimethyl-2-(3-(methylsulfonamido)phenyl)-1,2,3,4-tetrahydroquinoline-6-carboxylic acid] stands 1.42; under `CCc1nnnn1-c1cccc(C2Nc3ccc(C(=O)O)cc3CC2(C)C)c1` (stereo not drawn) [Example 148, 2-[3-(5-Ethyl-tetrazol-1-yl)-phenyl]-3,3-dimethyl-1,2,3,4-tetrahydro-quinoline-6-carboxylic acid], 1.3; under `CC(C)(C)c1ccc(-c2cccc(C3Nc4c(cc(Cl)cc4C(=O)O)CC3(C)C)c2)cc1` (stereo not drawn) [Example 142, 2-(4′-tert-Butyl-biphenyl-3-yl)-6-chloro-3,3-dimethyl-1,2,3,4-tetrahydro-quinoline-8-carboxylic acid], 1.54.
To `CC(C)[C@@H]1COC(=O)N1c1cccc(C2Nc3ccc(C(=O)NS(=O)(=O)C4CC4)cc3CC2(C)C)c1` (stereo partly drawn) [Example 125, Cyclopropanesulfonic acid {2-[3-((R)-4-isopropyl-2-oxo-oxazolidin-3-yl)-phenyl]-3,3-dimethyl-1,2,3,4-tetrahydro-quinoline-6-carbonyl}-amide] belongs 1.33; to `CCN1CCCC1CNC(=O)c1cccc(C2Nc3ccc(C(=O)O)cc3CC2(C)C)c1` (stereo not drawn) [Example 205, 2-(3-((1-Ethylpyrrolidin-2-yl)methylcarbamoyl)phenyl)-3,3-dimethyl-1,2,3,4-tetrahydroquinoline-6-carboxylic acid], 1.38.
To `CC(C)NC(=O)C(C)(C)Nc1cccc(C2Nc3ccc(C(=O)NS(C)(=O)=O)cc3CC2(C)C)c1` (stereo not drawn) [Example 43, N-isopropyl-2-[3-(6-methanesulfonylaminocarbonyl-3,3-dimethyl-1,2,3,4-tetrahydro-quinolin-2-yl)-phenylamino]-2-methyl-propionamide] belongs 1.29; to `CC1(C)Cc2cc(C(=O)O)ccc2NC1c1cccc(NC(=O)c2cccnc2)c1` (stereo not drawn) [Example 3, 3,3-Dimethyl-2-{3-[(pyridine-3-carbonyl)-amino]-phenyl}-1,2,3,4-tetrahydro-quinoline-6-carboxylic acid], 1.33; to `CN1CC(NC(=O)c2cccc(C3Nc4ccc(C(=O)O)cc4CC3(C)C)c2)C1` (stereo not drawn) [Example 208, 3,3-Dimethyl-2-(3-(1-methylazetidin-3-ylcarbamoyl)phenyl)-1,2,3,4-tetrahydroquinoline-6-carboxylic acid], 1.3.
`CC(C)C(=O)Nc1ccc(C2Nc3ccc(C(=O)O)cc3CC2(C)C)cc1` (stereo not drawn) [Example 178, 2-(4-Isobutyramidophenyl)-3,3-dimethyl-1,2,3,4-tetrahydroquinoline-6-carboxylic acid]: the E30 is 1.36.
To `CN1CCN(c2cccc(C3Nc4ccc(C(=O)NS(C)(=O)=O)cc4CC3(C)C)c2)C(=O)C1=O` (stereo not drawn) [Example 131, N-{3,3-Dimethyl-2-[3-(4-methyl-2,3-dioxo-piperazin-1-yl)-phenyl]-1,2,3,4-tetrahydro-quinoline-6-carbonyl}-methanesulfonamide] belongs 1.24; to `CC1(C)Cc2cc(C(=O)O)ccc2NC1c1cc(N2CCOCC2)ccc1F` (stereo not drawn) [Example 53, 2-(2-Fluoro-5-morpholin-4-yl-phenyl)-3,3-dimethyl-1,2,3,4-tetrahydro-quinoline-6-carboxylic acid], 1.33; to `CC(C)(Nc1ccccc1C1Nc2ccc(C(=O)O)cc2CC1(C)C)C(=O)O` (stereo not drawn) [Example 163, 2-[2-(1-Carboxy-1-methyl-ethylamino)-phenyl]-3,3-dimethyl-1,2,3,4-tetrahydro-quinoline-6-carboxylic acid], 3.68.
Under `Cc1ccccc1N1CCN(c2cccc(C3Nc4ccc(C(=O)NS(C)(=O)=O)cc4CC3(C)C)c2)CC1` (stereo not drawn) [Example 155, N-{3,3-Dimethyl-2-[3-(4-o-tolyl-piperazin-1-yl)-phenyl]-1,2,3,4-tetrahydro-quinoline-6-carbonyl}-methanesulfonamide] stands 1.19.
Under `CC1(C)Cc2cc(C(=O)O)ccc2NC1c1cccc(-n2cnc3c(c2=O)CCN(Cc2ccccc2)C3)c1` (stereo not drawn) [Example 136, 2-[3-(7-Benzyl-4-oxo-5,6,7,8-tetrahydro-4H-pyrido[3,4-d]pyrimidin-3-yl)-phenyl]-3,3-dimethyl-1,2,3,4-tetrahydro-quinoline-6-carboxylic acid] stands 1.3.
